We go through eight compounds from patent US20220361547A1, “TASTE MODIFYING COMPOSITIONS AND USES THEREOF” (Firmenich Incorporated, priority 2019, published 2022).

This experiment in a line: Sensory testing: taste testers rate sweetness of aqueous sweetener compositions without and with A1. The class given is in vivo, human. Conditions: scale from 1 to 10. The procedure:
Compositions of various sweetening agents were prepared without any additive and with the sodium salt of N-(1-((4-amino-2,2-dioxo-1H-benzo[c][1,2,6]thiadiazin-5-yl)oxy)-2-methyl-propan-2-yl)isonicotinamide (A1) added at various concentrations. Taste testers were asked to rate the sweetness of the resulting aqueous compositions for sweetness on a scale from 1 to 10.

Counter-ions that a name gives are not always drawn.

Take `CC(C)(COc1cccc2c1C(N)=NS(=O)(=O)N2)NC(=O)c1ccncc1` [A1, sodium salt of N-(1-((4-amino-2,2-dioxo-1H-benzo[c][1,2,6]thiadiazin-5-yl)oxy)-2-methyl-propan-2-yl)isonicotinamide]: the sweetness rating by setting is: (aqueous Allulose (3.5%) with 4 ppm A1) 3.7; (aqueous Allulose (3.5%) with 8 ppm A1) 4.7; (aqueous Allulose (3.5%) with 12 ppm A1) 4.1; (aqueous Allulose (3.5%) with 16 ppm A1) 5.5; (aqueous D-(+)-Glucose (7%) with 4 ppm A1) 4.5; (aqueous D-(+)-Glucose (7%) with 8 ppm A1) 4.2. This compound returned a sweetness rating (aqueous D-(+)-Glucose (7%) with 12 ppm A1) of 5.2; a sweetness rating (aqueous D-(+)-Glucose (7%) with 16 ppm A1) of 5.7; a sweetness rating (aqueous Erythritol (5%) with 4 ppm A1) of 4.4; a sweetness rating (aqueous Erythritol (5%) with 8 ppm A1) of 4.4; a sweetness rating (aqueous Erythritol (5%) with 12 ppm A1) of 5.7; a sweetness rating (aqueous Erythritol (5%) with 16 ppm A1) of 6.0. Also, the sweetness rating is 7.1 (aqueous Fructose (7%) with 4 ppm A1); 7.4 (aqueous Fructose (7%) with 8 ppm A1); 8.0 (aqueous Fructose (7%) with 12 ppm A1); 8.3 (aqueous Fructose (7%) with 16 ppm A1); 5.9 (aqueous HFCS (7%) with 4 ppm A1); 7.2 (aqueous HFCS (7%) with 8 ppm A1). The sweetness rating (aqueous HFCS (7%) with 12 ppm A1) worked out at 7.4; the sweetness rating (aqueous Reb M (200 ppm) with 4 ppm A1) is 5.3; the sweetness rating (aqueous Reb M (200 ppm) with 8 ppm A1) is recorded as 6.3; the sweetness rating (aqueous Reb M (200 ppm) with 12 ppm A1) amounted to 6.1; the sweetness rating (aqueous Reb M (200 ppm) with 16 ppm A1) was determined as 7.3; the sweetness rating (aqueous Sucralose (80 ppm) with 4 ppm A1) is listed as 6.1. Further, the sweetness rating (aqueous Sucralose (80 ppm) with 8 ppm A1) was determined as 6.6; the sweetness rating (aqueous Sucralose (80 ppm) with 12 ppm A1) worked out at 7.1; the sweetness rating (aqueous Sucralose (80 ppm) with 16 ppm A1) was 7.0; the sweetness rating (aqueous Sucrose (5%) with 4 ppm A1) is recorded as 6.4; the sweetness rating (aqueous Sucrose (5%) with 8 ppm A1) is recorded as 7.3; the sweetness rating (aqueous Sucrose (5%) with 12 ppm A1) was 8.0.
`O=C(CO)C(O)C(O)C(O)CO` (stereo not shown) [Allulose, reference compound] yielded a sweetness rating (aqueous Allulose (3.5%), No A1) of 3.0.
Turning to `O=C[C@H](O)[C@@H](O)[C@H](O)[C@H](O)CO` [D-(+)-Glucose, reference compound], the sweetness rating (aqueous D-(+)-Glucose (7%), No A1) is 3.8.
In the case of `OC[C@@H](O)[C@@H](O)CO` [Erythritol, reference compound], where the note is “aqueous Erythritol (5%), No A1”, the sweetness rating was determined as 4.0.
The compound `O=C(CO)[C@@H](O)[C@H](O)[C@H](O)CO` [Fructose, reference compound] came in with a sweetness rating (aqueous Fructose (7%), No A1) of 7.1.
On to `C=C1C[C@@]23CC[C@H]4[C@@](C)(CCC[C@@]4(C)C(=O)O[C@@H]4O[C@H](CO)[C@@H](O)[C@H](O[C@@H]5O[C@H](CO)[C@@H](O)[C@H](O)[C@H]5O)[C@H]4O[C@@H]4O[C@H](CO)[C@@H](O)[C@H](O)[C@H]4O)[C@@H]2CC[C@]1(O[C@@H]1O[C@H](CO)[C@@H](O)[C@H](O[C@@H]2O[C@H](CO)[C@@H](O)[C@H](O)[C@H]2O)[C@H]1O[C@@H]1O[C@H](CO)[C@@H](O)[C@H](O)[C@H]1O)C3` [Reb M, Rebaudioside M, reference compound], for which the sweetness rating (aqueous Reb M (200 ppm), No A1) is on record as 4.7.
As for `OC[C@H]1O[C@H](O[C@]2(CCl)O[C@H](CCl)[C@@H](O)[C@@H]2O)[C@H](O)[C@@H](O)[C@H]1Cl` [Sucralose, reference compound], the sweetness rating (aqueous Sucralose (80 ppm), No A1) is recorded as 3.3.
The compound `OC[C@H]1O[C@@](CO)(O[C@H]2O[C@H](CO)[C@@H](O)[C@H](O)[C@H]2O)[C@@H](O)[C@@H]1O` [Sucrose, reference compound] had a sweetness rating (aqueous Sucrose (5%), No A1) of 3.6.
